Measurements: US7989431B2, “2-propynyl adenosine analogs with modified 5′-ribose groups having A2A agonist activity” (University of Virginia Patent Foundation, priority 2004, dated 2011)
Where two headings read alike, the source gives them in different places.

Columns and labels:
[1] = target: T1, human A1 AR (Homo sapiens, UniProt P30542); assay: Radioligand competition binding, human A1 AR; conditions: binding affinity; 125I-ABA; membranes of CHO K1 cells stably expressing human A1 AR
T1 construct: expressed in transfected cells; membranes
T1 sequence (P30542 1-326): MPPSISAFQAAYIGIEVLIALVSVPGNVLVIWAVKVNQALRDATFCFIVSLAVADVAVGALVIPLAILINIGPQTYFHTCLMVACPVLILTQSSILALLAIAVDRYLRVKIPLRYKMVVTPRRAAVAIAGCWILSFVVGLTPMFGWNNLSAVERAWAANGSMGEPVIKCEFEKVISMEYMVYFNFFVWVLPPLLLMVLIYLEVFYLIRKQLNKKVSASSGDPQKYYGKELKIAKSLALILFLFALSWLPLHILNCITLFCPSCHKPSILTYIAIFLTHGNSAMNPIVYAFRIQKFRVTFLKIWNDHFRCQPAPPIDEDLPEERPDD
Method: (§1) Sf9 cells were cultured in Grace's medium supplemented with 10% fetal bovine serum, 2.5 μg/ml amphotericin B and 50 μg/ml gentamycin in an atmosphere of 50% N2/50% O2. Viral infection was performed at a density of 2.5×10^6 cells/mL with a multiplicity of infection of two for each virus used. Infected cells were harvested 3 days post-infection and washed twice in insect PBS (PBS pH 6.3). Cells were then resuspended in lysis buffer (20 mM HEPES pH 7.5, 150 mM NaCl, 3 mM MgCl2, 1 mM β-mercaptoethanol (BME), 5 μg/mL leupeptin, 5 μg/mL pepstatin A, 1 μg/mL aprotinin, and 0.1 mM PMSF) and snap frozen for storage at −80° C. Cells were thawed on ice, brought to 30 mL total volume in lysis buffer, and burst by N2 cavitation (600 psi for 20 minutes). A low-speed centrifugation was performed to remove any unlysed cells (1000×g for 10 minutes), followed by a high-speed centrifugation (17,000×g for 30 minutes). The pellet from the final centrifugation was homogenized in buffer containing 20 mM HEPES pH 8, 100mM NaCl, 1% glycerol, 2 μg/mL leupeptin, 2 μg/mL pepstatin A, 2 μg/mL Aprotinin, 0.1 mM PMSF, and 10 μM GDP using a small glass homogenizer followed by passage through a 26 gauge needle. Membranes were aliquoted, snap frozen in liquid N2, and stored at −80° C. Membranes from cells stably expressing the human A1 AR(CHO K1 cells) or A3 AR(HEK 293 cells) were prepared as described (Robeva et al., 1996).
(§2) Radioligand binding to recombinant human A2A receptors in Sf9 cell membranes was performed using either the radio labeled agonist, ^125I-APE (Luthin et al., 1995) or the radio labeled antagonist, ^125I-ZM241385 (^125I-ZM). To detect the high affinity, GTPγS-sensitive state of A1 and A3AR, we used the agonist, ^125I-ABA (Linden et al., 1985; Linden et al., 1993). Binding experiments were performed in triplicate with 5 μg (A2A) or 25 μg (A1 and A3) membrane protein in a total volume of 0.1 mL HE buffer (20 mM HEPES and 1 mM EDTA) with 1 U/mL adenosine deaminase and 5 mM MgCl2 with or without 50 μM GTPγS. Membranes were incubated with radioligands at room temperature for three hours (for agonists) or two hours (for antagonists) in Millipore Multiscreen® 96-well GF/C filter plates and assays were terminated by rapid filtration on a cell harvester (Brandel, Gaithersburg, Md.) followed by 4×150 μl washes over 30 seconds with ice cold 10 mM Tris-HCl, pH 7.4, 10 mM MgCl2. Nonspecific binding was measured in the presence of 50 μM NECA. Competition binding assays were performed as described (Robeva et al., 1996) using 0.5-1 nM ^125I-APE, ^125I-ZM241385, or ^125I-ABA. […]

[2] = target: T2, recombinant human A2A receptors (Homo sapiens, UniProt P29274); assay: Radioligand competition binding, recombinant human A2A receptors; conditions: binding affinity; 125I-APE or 125I-ZM241385; Sf9 cell membranes
T2 construct: expressed in transfected cells; host or cells: Sf9 insect cells, viral infection; membranes
T2 sequence (P29274 whole entry): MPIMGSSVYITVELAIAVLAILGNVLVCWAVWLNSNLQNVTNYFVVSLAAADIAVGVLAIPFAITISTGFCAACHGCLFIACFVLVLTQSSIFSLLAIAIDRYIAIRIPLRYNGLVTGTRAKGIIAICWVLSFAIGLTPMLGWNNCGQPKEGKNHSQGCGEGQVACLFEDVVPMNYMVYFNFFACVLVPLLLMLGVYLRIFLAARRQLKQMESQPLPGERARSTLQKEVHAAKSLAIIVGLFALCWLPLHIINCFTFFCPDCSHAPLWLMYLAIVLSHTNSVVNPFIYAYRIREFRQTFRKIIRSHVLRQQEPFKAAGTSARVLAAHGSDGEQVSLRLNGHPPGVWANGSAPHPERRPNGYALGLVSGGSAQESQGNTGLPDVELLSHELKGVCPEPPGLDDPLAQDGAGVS
Method: as §1, §2

[3] = target: T3, A3 AR (Homo sapiens, UniProt P0DMS8); assay: Radioligand competition binding, human A3 AR; conditions: binding affinity; 125I-ABA; membranes of HEK 293 cells stably expressing human A3 AR
T3 construct: expressed in transfected cells; membranes
T3 sequence (P0DMS8 1-318): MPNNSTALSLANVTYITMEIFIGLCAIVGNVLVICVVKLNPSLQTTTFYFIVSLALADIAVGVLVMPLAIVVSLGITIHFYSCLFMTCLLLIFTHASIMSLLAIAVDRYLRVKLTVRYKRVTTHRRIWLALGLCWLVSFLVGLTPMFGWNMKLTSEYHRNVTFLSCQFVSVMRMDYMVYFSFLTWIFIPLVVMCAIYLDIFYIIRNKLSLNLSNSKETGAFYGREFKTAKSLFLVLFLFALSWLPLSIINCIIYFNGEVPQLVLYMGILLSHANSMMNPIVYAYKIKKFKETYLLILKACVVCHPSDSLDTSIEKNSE
Method: as §1, §2

[4] = test system: human neutrophils; assay: Human neutrophil oxidative activity, luminol-enhanced chemiluminescence; format: cell-based; conditions: fMLP-stimulated peak chemiluminescence
Source text: Chemiluminescence Methods: Luminol enhanced chemiluminescence, a measure of neutrophil oxidative activity, is dependent upon both superoxide production and mobilization of the granule enzyme myeloperoxidase. The light is emitted from unstable high-energy oxygen species such as hypochlorous acid and singlet oxygen generated by activated neutrophils.
Purified human neutrophils (2×10^6/ml) suspended in Hanks balanced salt solution containing 0.1% human serum albumin (HA), adenosine deaminase (1 U/mL) and rolipram (100 nM) were incubated (37° C.) in a water bath for 15 min with or without rhTNF(10 U/ml). Following incubation 100 µL aliquots of the PMN were transferred to wells (White walled clear bottom 96 well tissue culture plates Costar #3670; 2 wells/condition) containing […] and luminol (final concentration 100 µM) with or without adenosine agonist (final agonist concentrations 0.01-1000 nM). The plate was incubated 5 min (37° C.) and then fMLP (501 in HA; final concentration […]) was added to all wells.
Peak chemiluminescence was determined with a Victor 1420 Multilabel Counter in the chemiluminescence mode using the Wallace Workstation software. Data are presented as peak chemiluminescence as percent of activity in the absence of an adenosine agonist. The EC50 was determined using PRISM software. All compounds were tested with PMNs from three separate donors.
f-met-leu-phe (fMLP), luminol, superoxide dismutase, cytochrome C, fibrinogen, adenosine deaminase, and trypan blue were obtained from Sigma Chemical. Ficoll-hypaque was purchased from ICN (Aurora, Ohio), and Cardinal Scientific (Santa Fe, N. Mex.) and Accurate Chemicals and Scientific (Westerbury, N.Y.). Endotoxin (lipopolysaccharide; E. coli K235) was from List Biologicals (Campbell, Calif.). Hanks balanced salt solution (HBSS), and limulus amebocyte lysate assay kit were from BioWittaker (Walkersville, Md.). Human serum albumin (HSA) was from Cutter Biological (Elkhart, Ind.). Recombinant human tumor necrosis factor-alpha was supplied by Dianippon Pharmaceutical Co. Ltd. (Osaka, Japan). ZM241385 (4-(2-[7-amino-2-(2-furyl) [1,2,4]triazolo[2,3-a][1,3,5]triazin-5-yl amino]ethyl)phenol) was a gift from Simon Poucher, Zeneca Pharmaceuticals, Cheshire, UK. Stock solutions (1 mM and 10 mM in DMSO) were made and stored at −20° C.
Purified neutrophils (−98% neutrophils and >95% viable by trypan blue exclusion) containing <1 platelet per 5 neutrophils and <50 pg/ml endotoxin (limulus amebocyte lysate assay) were obtained from normal heparinized (10 U/ml) venous blood by a one step Ficoll-hypaque separation procedure (A. Ferrante et al., J. Immunol. Meth., 36, 109 (1980)).
Luminol-enhanced chemiluminescence, a measure of neutrophil oxidative activity, is dependent upon both superoxide production and mobilization of the lysosomal granule enzyme myeloperoxidase. The light is emitted from unstable high-energy oxygen species generated by activated neutrophils. Purified neutrophils (5-10×10^5/ml) were incubated in Hanks balanced salt solution containing 0.1% human serum albumin (1 ml) with the tested A2A agonist with or without rolipram and with or without tumor necrosis factor-alpha (1 U/ml) for 30 minutes at 37° C. in a shaking water bath. Then luminol (1×10^−4 M) enhanced f-met-leu-phe (1 mcM) stimulated chemiluminescence was read with a Chronologo Photometer (Crono-log Corp., Havertown, Pa.) at 37° C. for 2-4 minutes. Chemiluminescence is reported as relative peak light emitted (=height of the curve) compared to samples with tumor necrosis factor-alpha and without agonist or rolipram.

[5] = human neutrophil experiment with Rolipram, read-out: Functional + Roli
[6] = human neutrophil experiment without Rolipram, read-out: Functional

## COC(=O)C1CCC(CC#Cc2nc(N)c3ncn([C@@H]4O[C@H](C(=O)NC5CC5)C(O)C4O)c3n2)CC1 (stereo in doubt) [Example 1, 4-{3-[6-Amino-9-(5-cyclopropylcarbamoyl-3,4-dihydroxy-tetrahydro-furan-2-yl)-9H-purin-2-yl]-prop-2-ynyl}-cyclohexanecarboxylic acid methyl ester]
[1]
  Ki: 32 nM
[2]
  Ki: 0.58 nM
[3]
  Ki: 34 nM
[4]; [5]
  EC50: 0.2 nM
[4]; [6]
  EC50: 2 nM

## COC(=O)N1CCC(CC#Cc2nc(N)c3ncn([C@@H]4O[C@H](C(=O)NC5CC5)C(O)C4O)c3n2)CC1 (stereo in doubt) [Example 2, 4-{3-[6-Amino-9-(5-cyclopropylcarbamoyl-3,4-dihydroxy-tetrahydro-furan-2-yl)-9H-purin-2-yl]-prop-2-ynyl}-piperidine-1-carboxylic acid methyl ester]
[1]
  Ki: 57 nM
[2]
  Ki: 0.7 nM
[3]
  Ki: 247 nM
[4]; [5]
  EC50: 0.2 nM
[4]; [6]
  EC50: 2 nM

## C[C@@H]1CCC[C@@](O)(C#Cc2nc(N)c3ncn([C@@H]4O[C@H](C(=O)NC5CC5)C(O)C4O)c3n2)C1 (stereo in doubt) [Example 3, 5-[6-Amino-2-(1-hydroxy-3-methyl-cyclohexylethynyl)-purin-9-yl]-3,4-dihydroxy-tetrahydro-furan-2-carboxylic acid cyclopropylamide]
[1]
  Ki: 1.5 nM
[2]
  Ki: 0.5 nM
[3]
  Ki: 3 nM
[4]; [5]
  EC50: 0.04 nM
[4]; [6]
  EC50: 0.3 nM

## Nc1nc(I)nc2c1ncn2[C@@H]1O[C@H](C(=O)NC2CC2)C(O)C1O (stereo in doubt) [Example 4, 5-(6-Amino-2-iodo-purin-9-yl)-3,4-dihydroxy-tetrahydro-furan-2-carboxylic acid cyclopropylamide]
[1]
  Ki: 33 nM
[2]
  Ki: 0.6 nM
[3]
  Ki: 45 nM
[4]; [5]
  EC50: 0.2 nM
[4]; [6]
  EC50: 2 nM
